# What was measured:
# [1] = Liver function (ALT, ALP) in angiotensin II hypertensive mice; assay type: in vivo
# Description: FIG. 11A is a graph showing the level of Alanine Aminotransferase/SGPT (ALT) in control mice administered vehicle, EXP mice administered angiotensin II and levan, and mice administered angiotensin II without levan.
# FIG. 11B is a graph showing the level of alkaline phosphatase (ALP) in control mice administered vehicle, EXP mice administered angiotensin II and levan, and mice administered angiotensin II without levan.
# [2] = system: inflammation, oxidative stress and ER stress markers in distal colon; experiment: mRNA markers in distal colon of angiotensin II hypertensive mice; assay type: in vivo
# Description: FIG. 10K is a heat map showing the markers in distal colon from normotensive mice and hypertensive mice treated with and without low levan β-[2,6]-glycosidic linkages treatment.
# [3] = system: inflammation, oxidative stress and endoplasmic reticulum stress markers in thoracic aorta; experiment: Western blot and qRT-PCR markers in thoracic aorta of HFD obese mice; assay type: in vivo
# Description: FIG. 3D is a western blot of phospho-endothelial nitric oxide synthase (P-eNOS), […] endothelial nitric oxide synthase (T-eNOS), binding protein (BIP), C/EBP homologous protein (CHOP), tumor necrosis factor alpha (TNFα), P65 and glyceraldehyde-3-phosphate dehydrogenase (GAPDH), for the control mice, the HFD mice and the EXP mice.
# FIG. 3W is a heat map showing all the markers in thoracic aorta from control mice and mice fed with HFD in the presence and absence of low levan β-[2,6]-glycosidic linkages treatment.
# (§1) Eight-week-old C57/b6 male mice (stock number 000664, Jackson Labs) were fed with a high fat diet (HFD) for 12 weeks in the presence and absence of levan having β-[2,6]-glycosidic linkages. More specifically, the mice were fed either standard diet (SD; 5.8% fat, 44.3% carbohydrate, 19.1% protein) or high fat (HFD; 60% fat, 20% carbohydrate, 20% protein) diet for 12 weeks. Levan having β-[2,6]-glycosidic linkages was administered by gavage (250 mg/Kg) for the last 4 weeks of HFD feeding for a subgroup of mice, the experimental group. Bodyweight, blood glucose, body composition, and lipid profile were determined. Vascular function and endothelial function markers were studied in aorta and mesenteric resistance arteries (MRA). Furthermore, body weight was measured weekly, lean and fat mass were measured by EchoMRl, blood glucose and lipid plasma levels were measured, and the thoracic aorta and mesenteric resistance arteries (MRA) were harvested and used for western blot, quantitative real time (qRT-) PCR and vascular reactivity using the wire myograph.
# [4] = system: inflammation, oxidative stress and endoplasmic reticulum stress markers in thoracic aorta; experiment: Western blot and mRNA markers in thoracic aorta of angiotensin II hypertensive mice; assay type: in vivo
# Description: FIG. 8H is a western blot of IP3R1,p-Protein kinase-like endoplasmic reticulum kinase (PERK), t-PERK, P-eNOS, T-eNOS, BIP, NOX1, TNFα, P65, cytochrome c and GAPDH, in thoracic aorta for control mice administered vehicle (CTL), EXP mice administered angiotensin II and levan (A+L), and mice administered angiotensin II without levan (ANG).
# [5] = system: inflammation, oxidative stress and endoplasmic reticulum stress markers in mesenteric arteries; experiment: Western blot markers in mesenteric arteries of HFD obese mice; assay type: in vivo
# Description: FIG. 4D is a western blot of P-eNOS, T-eNOS, BIP, CHOP, TNFα, P65 and GAPDH, in mesenteric arteries for the control mice, the HFD mice and the EXP mice.
# as §1
# [6] = High fat diet (HFD) obesity mouse model: body weight, body composition, blood glucose, lipid profile; assay type: in vivo, mice; conditions: for body weight: HFD-fed C57/b6 male mice, levan 250 mg/Kg by gavage, last 4 weeks of 12 weeks HFD
# Procedure: as §1
# Results, reported as means ± standard error (SE), were analyzed using GraphPad Prism 9 (GraphPad Software, San Diego, CA). T-tests and one-way ANOVA were used to compare certain paired parameters. Unless specified otherwise, the values for p are *p<0.05; **p<0.01; ***p<0.001; and ****p<0.0001.
# [7] = system: inflammation, oxidative stress and ER stress markers in proximal colon; experiment: mRNA markers in proximal colon of angiotensin II hypertensive mice; assay type: in vivo
# Description: FIG. 9K is a heat map showing the markers in proximal colon from normotensive mice and hypertensive mice treated with and without low levan β-[2,6]-glycosidic linkages treatment.
# [8] = system: thoracic aorta; experiment: Vascular reactivity (wire myograph) of thoracic aorta from HFD obese mice; assay type: in vivo
# Description: FIG. 3A a graph showing the original traces for the harvesting of the thoracic aorta from mice C, HFD and EXP, and exposing the aortas to acetylcholine (Ach) in vitro using the wire myograph (cumulative doses of Ach after precontraction to phenylephrine).
# FIG. 3B is a graph of the aorta relaxation percentage in function of the logarithm of the concentration of acetylcholine (endothelium dependent relaxation to Ach) for control mice (1), EXP mice (2) and HFD mice (3).
# FIG. 3C is a graph of the aorta relaxation percentage in function of the logarithm of the concentration of sodium nitroprusside (SNP) (endothelium independent relaxation to SNP) for control mice (1), EXP mice (2) and HFD mice (3).
# as §1
# [9] = system: aorta; experiment: Vascular contraction and relaxation of aorta from angiotensin II hypertensive mice; assay type: in vivo
# Description: FIG. 8C is a graph showing the aorta contraction percentage in response to the log of phenylephrine (PE) concentration for control mice administered vehicle (1), EXP mice administered angiotensin II and levan (2) and mice administered angiotensin II without levan (3).
# FIG. 8D is a graph showing the aorta contraction percentage in response to the log of thromboxane A analog (TXA) concentration for control mice administered vehicle (1), EXP mice administered angiotensin II and levan (2) and mice administered angiotensin II without levan (3).
# FIG. 8E is a graph showing the aorta contraction percentage in response to the log of angiotensin II (Ang II) concentration for control mice administered vehicle (1), EXP mice administered angiotensin II and levan (2) and mice administered angiotensin II without levan (3).
# FIG. 8F is a graph showing the aorta relaxation percentage in function of the logarithm of the concentration of acetylcholine (endothelium dependent relaxation to Ach) for control mice administered vehicle (1), EXP mice administered angiotensin II and levan (2) and mice administered angiotensin II without levan (3).
# FIG. 8G is a graph of the aorta relaxation percentage in function of the logarithm of the concentration of sodium nitroprusside (SNP) (endothelium independent relaxation to SNP) for control mice administered vehicle (1), EXP mice administered angiotensin II and levan (2) and mice administered angiotensin II without levan (3).
# [10] = Systolic blood pressure in angiotensin II hypertensive mice; assay type: in vivo; conditions: mice with hypertension (angiotensin II); vs angiotensin II without levan
# Description: FIG. 8A is a graph showing the systolic blood pressure (BP) in function of time for control mice administered vehicle (1), EXP mice administered angiotensin II and levan (2) and mice administered angiotensin II without levan (3).
# [11] = system: inflammation, oxidative stress and ER stress markers in proximal colon; experiment: mRNA markers in proximal colon of HFD obese mice; assay type: in vivo
# Description: FIG. 5L is a heat map showing all the markers in proximal colon from control mice and mice fed with HFD in the presence and absence of low levan β-[2,6]-glycosidic linkages treatment.
# as §1
# [12] = system: inflammation, oxidative stress and ER stress markers in distal colon; experiment: mRNA markers in distal colon of HFD obese mice; assay type: in vivo
# Description: FIG. 6L is a heat map showing all the markers in distal colon from control mice and mice fed with HFD in the presence and absence of low levan β-[2,6]-glycosidic linkages treatment.
# as §1
# [13] = system: mesenteric resistance arteries (MRA); experiment: Vascular reactivity (wire myograph) of mesenteric resistance arteries from HFD obese mice; assay type: in vivo
# Description: FIG. 4B is a graph of the mesenteric relaxation percentage in function of the logarithm of the concentration of acetylcholine (endothelium dependent relaxation to Ach) for control mice (1), EXP mice (2) and HFD mice (3).
# FIG. 4C is a graph of the mesenteric relaxation percentage in function of the logarithm of the concentration of sodium nitroprusside (SNP) (endothelium independent relaxation to SNP) for control mice (1), EXP mice (2) and HFD mice (3).
# as §1
# [14] = Liver function (ALT, ALP) in HFD obese mice; assay type: in vivo; conditions: mice with obesity; levan 250 mg/Kg gavage 4 weeks
# [15] = listed as low MW levan β-[2,6]-glycosidic linkages
# [16] = HFD mice, levan 250 mg/Kg gavage 4 weeks, vs untreated HFD mice
# [17] = mice with obesity, levan 250 mg/Kg gavage 4 weeks
# [18] = obese mice, endothelium dependent relaxation after precontraction to phenylephrine
# [19] = listed as low molecular levan having β-[2,6]-glycosidic linkages
substance,measurement,setting,value
levan [low MW levan],"damage to the liver function (ALT, ALP)",[1],did not cause damage
same,toxicity of dose and treatment period,[1],not toxic
same,ER stress,[2],reduced
same,inflammation,[2],reduced
same,oxidative stress,[2],reduced
same,endoplasmic reticulum stress,[3],significantly reduced
same,inflammation,[3],significantly reduced
same,oxidative stress,[3],significantly reduced
same,endoplasmic reticulum stress,[3]; [15],decreased
same,inflammation,[3]; [15],decreased
same,oxidative stress,[3]; [15],decreased
same,endoplasmic reticulum stress,[4],significantly reduced
same,inflammation,[4],significantly reduced
same,oxidative stress,[4],significantly reduced
same,endoplasmic reticulum stress,[5]; [15],decreased
same,inflammation,[5]; [15],decreased
same,oxidative stress,[5]; [15],decreased
same,endoplasmic reticulum stress,[5]; listed as low levan,significantly reduced
same,inflammation,[5]; listed as low levan,significantly reduced
same,oxidative stress,[5]; listed as low levan,significantly reduced
same,lipid profile,"[6]; HFD mice with obesity, levan 250 mg/Kg gavage 4 weeks",improved
same,fat mass %,"[6]; HFD mice, levan 250 mg/Kg gavage 4 weeks, EchoMRI, vs untreated HFD mice",significantly decreased
same,lean mass %,"[6]; HFD mice, levan 250 mg/Kg gavage 4 weeks, EchoMRI, vs untreated HFD mice, listed as low MW levan β-[2,6]-glycosidic linkages",increased
same,lean mass %,"[6]; HFD mice, levan 250 mg/Kg gavage 4 weeks, EchoMRI, vs untreated HFD mice, listed as low molecular weight levan having β-[2,6]-glycosidic linkages",significantly increased
same,HDL,[6]; [16],significantly decreased
same,LDL,[6]; [16],significantly decreased
same,blood glucose,[6]; [16],significantly decreased
same,total cholesterol,[6]; [16],significantly decreased
same,triglyceride,[6]; [16],significantly decreased
same,body weight,"[6]; vs untreated HFD mice, listed as Low MW levan β-[2,6]-glycosidic linkages",reduced
same,body weight,"[6]; vs untreated HFD mice, listed as low molecular weight levan having β-[2,6]-glycosidic linkages",decreased
same,ER stress,[7],reduced
same,inflammation,[7],reduced
same,oxidative stress,[7],reduced
same,endothelial function of conductance artery (thoracic aortic),[8]; [17],preserve
same,vascular function in aorta,[8]; [17],improved
same,"vascular response to acetylcholine (Ach), aorta",[8]; [18],improved
same,vascular relaxation,"[9]; hypertensive mice, aorta",improving
same,exacerbated vascular contraction,"[9]; hypertensive mice, aorta contraction to PE, TXA, Ang II",reducing
same,vascular function in the aorta,[9]; mice with hypertension (angiotensin II),improved
same,blood pressure,[10],reduced
same,ER stress,[11]; [15],decreased
same,inflammation,[11]; [15],decreased
same,oxidative stress,[11]; [15],decreased
same,ER stress,[11]; [19],reduced
same,inflammation,[11]; [19],reduced
same,oxidative stress,[11]; [19],reduced
same,ER stress,[12]; [15],decreased
same,inflammation,[12]; [15],decreased
same,oxidative stress,[12]; [15],decreased
same,ER stress,[12]; [19],reduced
same,inflammation,[12]; [19],reduced
same,oxidative stress,[12]; [19],reduced
same,endothelial function of resistance arteries (mesenteric artery),[13]; [17],preserve
same,vascular function in mesenteric arteries,[13]; [17],improved
same,"vascular response to acetylcholine (Ach), MRA",[13]; [18],improved
same,"liver function (ALT, ALP)",[14],improved
same,toxicity of the dose used,[14],not toxic

# From patent US20230310473A1, “METHOD FOR TREATING OBESITY AND/OR HYPERTENSION” (THE ROYAL INSTITUTION FOR THE ADVANCEMENT OF …, priority 2022, published 2023)
